According to patent US20250179114A1, “Anti-Inflammatory Compound and Use Thereof” (DUALITY BIOLOGICS (SUZHOU) CO., LTD., priority 2021, published 2025):

Legend:
Format in all cases: cell-based
[1] = system: TNF-α secretion from PBMC under R848 stimulation; experiment: R848-induced release of TNFα from human peripheral blood monocytes (PBMC); design: unit not given here; details: R848 5 μM, 24 h, ELISA
Description: (§1) Example 4: Inhibitory Effect of Compounds of the Present Invention on R848-Induced Release of IFNα and TNFα from Human Peripheral Blood Monocytes
(§2) The compounds of the present application were detected for their inhibitory effect on the production of peripheral blood monocytes. The peripheral blood monocytes were treated in vitro with the ligand-drug conjugates at different concentrations, and IFNα and TNFα produced by the peripheral blood monocytes were quantitatively detected after a certain time. The compounds of the present invention were evaluated for in-vitro activity.
(§3) The cryopreserved human PBMC cells were resuspended in a complete medium and counted, and the cell suspension was adjusted to 2.5×10^6 cells/mL with the culture medium. After the suspension was centrifuged to collect the cells the next day, the cells were resuspended using fresh culture medium. Test compounds were diluted to 4-fold final concentration in cell culture medium, 50 μL of the compounds were added into a 96-well cell plate, and 100 μL of diluted cells (800,000 cells/well) were added into each well of the 96-well plate containing the compounds, followed by addition of 50 μL R848 to a final concentration of 5 μM. The cell plate was incubated at 37° C. with 5% CO2 for 24 h. The supernatant was collected, and the TNF-α and IFN-α concentration levels in the supernatant were detected using an ELISA kit. TNF-α concentration assay was performed using Dakewe TNF-α ELISA kit (Cat #1117202), 100 μL of the serially-diluted cytokine standard was added into each well, 100 μL of the above supernatant diluted 10-fold was added into each well, and 100 μL of 1× dilution buffer R was added into each blank control well. 50 μL of biotinylated antibody working solution was added into each well. After mixing well, the plate was covered with a plate-sealing membrane and incubated at room temperature for 3 h. The plate was washed for 3 times: the liquid in each well was discarded, and 300 μL of 1× washing buffer working solution was added into each well; after 1 minute of residence, the liquid in the wells was discarded. The procedure was repeated for 3 times. 100 μL of Streptavidin-HRP working solution was added into each well. The plate was covered with the plate-sealing membrane and incubated at room temperature for 20 min. The plate was washed for 3 times, 100 μL of TMB liquid was added into each well, and the plate was incubated at room temperature (18-25° C.) in the dark for 25 min. The reaction was stopped by adding 100 μL stop solution rapidly to each well. The reading at a wavelength of 450 nm was detected by an M2e instrument within 10 min after termination.
The contents of TNF-α and IFN-α were calculated from the OD450 values (Mean±standard deviation).

[2] = system: IFN-α secretion from PBMC under R848 stimulation; experiment: R848-induced release of IFNα from human peripheral blood monocytes (PBMC); design: unit not given here; details: R848 5 μM, 24 h, ELISA
Description: as §1, §2, §3
IFN-α concentration assay was performed using Dakewe IFN-α ELISA kit (Cat #1110012), 100 μL of the serially-diluted cytokine standard was added into each well, 100 μL of the above supernatant diluted 2-fold was added into each well, and 100 μL of 1× dilution buffer R was added into each blank control well. 50 μL of biotinylated antibody working solution was added into each well. After mixing well, the plate was covered with a plate-sealing membrane and incubated at room temperature for 3 h. The plate was washed for 3 times: the liquid in each well was discarded, and 300 μL of 1× washing buffer working solution was added into each well; after 1 minute of residence, the liquid in the wells was discarded. The procedure was repeated for 3 times. 100 μL of Streptavidin-HRP working solution was added into each well. The plate was covered with the plate-sealing membrane and incubated at room temperature for 20 min. The plate was washed for 3 times, 100 μL of TMB liquid was added into each well, and the plate was incubated at room temperature (18-25° C.) in the dark for 25 min. The reaction was stopped by adding 100 μL stop solution rapidly to each well. The reading at a wavelength of 450 nm was detected by an M2e instrument within 10 min after termination. […]

glucocorticoid receptor = target: T1, glucocorticoid receptor (Homo sapiens, UniProt P04150); experiment: Activity assay of glucocorticoid receptor reporter gene GRE; details: HEK293 cells transfected with pGL5 and pBIND-GR; 24 h; Dual-Glo luciferase
T1 construct: host or cells: HEK293
T1 sequence (P04150 1-777): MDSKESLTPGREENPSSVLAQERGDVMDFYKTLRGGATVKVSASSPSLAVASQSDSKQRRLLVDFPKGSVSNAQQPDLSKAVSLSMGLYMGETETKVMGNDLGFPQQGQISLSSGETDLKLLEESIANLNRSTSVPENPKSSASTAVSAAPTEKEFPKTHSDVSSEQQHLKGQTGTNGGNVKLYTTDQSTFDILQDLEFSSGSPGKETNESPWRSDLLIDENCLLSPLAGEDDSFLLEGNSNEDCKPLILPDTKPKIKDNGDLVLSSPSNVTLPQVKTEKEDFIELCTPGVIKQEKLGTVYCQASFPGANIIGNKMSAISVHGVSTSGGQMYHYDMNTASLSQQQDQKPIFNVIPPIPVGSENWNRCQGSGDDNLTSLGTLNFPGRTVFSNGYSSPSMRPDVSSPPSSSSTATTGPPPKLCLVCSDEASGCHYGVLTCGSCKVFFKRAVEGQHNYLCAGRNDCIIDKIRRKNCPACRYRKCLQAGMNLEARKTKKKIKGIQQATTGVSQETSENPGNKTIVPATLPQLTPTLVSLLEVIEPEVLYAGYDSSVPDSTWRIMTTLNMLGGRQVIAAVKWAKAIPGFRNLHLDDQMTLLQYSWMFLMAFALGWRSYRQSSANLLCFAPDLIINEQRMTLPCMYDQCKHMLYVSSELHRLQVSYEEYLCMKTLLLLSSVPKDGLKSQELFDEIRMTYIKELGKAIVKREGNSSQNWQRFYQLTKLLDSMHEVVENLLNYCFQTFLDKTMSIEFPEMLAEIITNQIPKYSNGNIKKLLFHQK
Description: HEK293 cells were cultured in DMEM+10% FBS medium in a carbon dioxide incubator humidified at 37° C. with 5% carbon dioxide.
HEK293 cells were digested with trypsin, and the HEK293 cell resuspension was adjusted to 200,000 cell/mL in medium (96 well plate: 100 μL/well).
Transfection reagent mixtures were prepared according to Tables 5a and 5b below, mixed well and left to stand at room temperature for 20 min.
The prepared transfection mixtures were added to 10 mL of the cell density-adjusted resuspension, mixed well by turning the mixtures upside down, and seeded into a 96-well plate at a volume of 100 μL/well.
The 96-well plate was incubated in a humidified incubator at 37° C. with 5% carbon dioxide for 24 h.
The test plate was placed back into the incubator and incubated for 24 h.
The test plate was detected using the Dual-Glo Luciferase Assay System kit from Promega, and the fluorescence signal of Firefly Luciferase and the fluorescence signal of Renilla Luciferase were read using Enspire, respectively.
The final measurement value was a normalized value “F/R” obtained by dividing the Firefly Luciferase fluorescent signal by the Renilla Luciferase fluorescent signal.
The data were copied and pasted into Excel, and the activation rate was obtained through an equation.
The data were imported into MS Excel and subjected to curve fitting by using XLFit excel add-in version 5.4.0.8 to obtain an EC50 value.
Y is the agonism and X is the concentration of the compound.

Q: Which “TNF-α content in supernatant (Mean±standard deviation)” value ([1]; compound 4 nM) does the source give for `C[C@]12C=CC(=O)C=C1CC[C@@H]1[C@@H]2[C@@H](O)C[C@@]2(C)[C@H]1C[C@H]1O[C@@H](c3ccn(Cc4cccc(N)c4)c3)O[C@]12C(=O)CO` [Compound 1] here?
A: The value was 1187.6 ± 87.4.

Q: And the “TNF-α content in supernatant (Mean±standard deviation)” value ([1]; compound 20 nM)?
A: The value was 611.9 ± 10.7.

Q: What about the “TNF-α content in supernatant (Mean±standard deviation)” value ([1]; compound 100 nM) of the same molecule?
A: Its value is 592.8 ± 92.1.

Q: And the “IFN-α content in supernatant (Mean±standard deviation)” value ([2]; compound 4 nM)?
A: The value was 228.3 ± 0.2.

Q: What about the “IFN-α content in supernatant (Mean±standard deviation)” value ([2]; compound 20 nM) of the same molecule?
A: Its value is 0 ± 0.

Q: What about the “IFN-α content in supernatant (Mean±standard deviation)” value ([2]; compound 100 nM) of the same molecule?
A: The value was 0 ± 0.

Q: `C[C@]12C=CC(=O)C=C1CC[C@@H]1[C@@H]2[C@@H](O)C[C@@]2(C)[C@H]1C[C@H]1O[C@@H](c3ccn(Cc4ccc(N)cc4)c3)O[C@]12C(=O)CO` [Compound 2] was tested. Which “TNF-α content in supernatant (Mean±standard deviation)” value ([1]; compound 4 nM) did it give?
A: Its value is 898.3 ± 27.7.

Q: What about the “TNF-α content in supernatant (Mean±standard deviation)” value ([1]; compound 20 nM) of the same molecule?
A: The value was 584.4 ± 171.1.

Q: What about the “TNF-α content in supernatant (Mean±standard deviation)” value ([1]; compound 100 nM) of the same molecule?
A: The value was 623.3 ± 238.4.

Q: And the “IFN-α content in supernatant (Mean±standard deviation)” value ([2]; compound 4 nM)?
A: Its value is 108 ± 11.

Q: What about the “IFN-α content in supernatant (Mean±standard deviation)” value ([2]; compound 20 nM) of the same molecule?
A: The value was 11.1 ± 11.1.

Q: What about the “IFN-α content in supernatant (Mean±standard deviation)” value ([2]; compound 100 nM) of the same molecule?
A: Its value is 0 ± 0.

Q: What about the EC50 (glucocorticoid receptor) of the same molecule?
A: The EC50 was 0.15 nM.
